{"source": "patent US9650365B2", "about": "(UNIVERSITY OF CONNECTICUT, priority 2014, dated 2017)", "key": {"Ptch1 in C3Hs": {"system": "Ptch1 in C3Hs", "experiment": "Down-regulation of Ptch1 in C3H10T1/2 cells", "assay_type": "cell-based, mouse", "text": "For this assay, the wild-type and D477G Smo constructs will be transiently transfected into C3H10T1/2 cells and inhibition of pathway signaling assessed as previously described."}, "tube formation in HUVECs": {"system": "tube formation in HUVECs", "experiment": "HUVEC tube formation on Matrigel", "assay_type": "cell-based, human", "excerpt": "In vivo angiogenesis is dependent on endothelial cell proliferation; therefore, the inhibition of HUVEC proliferation is commonly utilized as an early stage in vitro model of anti-angiogenic activity. […] Under normal conditions, HUVECs plated and grown on Matrigel migrate towards each other, align, and form tubes that resemble in vivo capillary beds. This assay is generally considered a more robust model of angiogenesis as it requires several aspects of proper vessel formation, including adhesion, migration, and tube formation.\nTube Formation Assay. Matrigel (BD Biosciences) is diluted with DMEM to 3 mg/ml and used to coat the wells of a 24-well tissue culture dish. Plates are incubated at room temperature for 30 min until the matrigel solidifies. HUVECs are suspended in M199 media with 1% FBS and penicillin/streptomycin and 40,000 cells are added to each well. Plates are incubated at 37° C. for 1 h to allow HUVECs to attach to the matrigel. […] Phase contrast images of each well (3/well) are taken on an inverted microscope and quantified using Image J software (NIH).\nTube Formation Assay. Matrigel (BD Biosciences) was diluted 1:1 with DMEM (matrigel protein concentration no less than 3 mg/ml) and used to coat the wells of a 24-well tissue culture dish (280 uL per well). Plates were incubated at 37° C. for no more than 1 h until the matrigel solidified. HUVECs were suspended in M199 media with 1% FBS and penicillin/streptomycin and 50,000 cells were added to each well. Plates were incubated at 37° C. for 20-30 min to allow HUVECs to attach to the matrigel. Cells were treated with control (DMSO), known angiogenic inhibitor suramin (10 uM), or varying doses (10, 1, 0.1 μM) of drug and incubated for 16 h. Phase contrast images were taken from multiple locations in each well (8/well) on an inverted microscope and tube formation parameters quantified using Image J software (NIH)."}, "[1]": {"system": "Hh signaling (Gli1 mRNA) in ASZ cells", "experiment": "Down-regulation of endogenous Gli1 mRNA in ASZ cells", "assay_type": "cell-based, murine", "settings": "Mus musculus", "method_in_brief": "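Hh pathway activated in C3H10T1/2 cells with exogenous agonist (recombinant Hh ligand or small molecule) alongside inhibitor; Gli1 mRNA measured by qPCR. Concentration-dependent Gli1 reduction also assessed in murine BCC ASZ cells; values mean±SEM, ≥2 experiments in triplicate.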"}, "[2]": {"system": "Gli1 in DAOYs (cultured MB)", "experiment": "Down-regulation of Gli1 in DAOY cells", "assay_type": "cell-based", "settings": "Homo sapiens", "excerpt": "Additional analogues have been synthesized and characterized in the assays described above."}, "angiogenesis": {"system": "angiogenesis", "settings": "background; cited from earlier work"}, "Hh-dependent MB": {"system": "Hh-dependent MB", "settings": "oral administration; cited from earlier work"}}, "note": "Like-named read-outs stand apart in the source and are kept apart here."}
{"smiles": "CCC(C)n1ncn(-c2ccc(N3CCN(c4ccc(OCC5COC(Cn6cncn6)(c6ccc(Cl)cc6Cl)O5)cc4)CC3)cc2)c1=O", "note": "(centres unmarked) [ITZ, itraconazole, reference compound]", "values": [{"measurement": "IC50", "setting": "Ptch1 in C3Hs", "result": 0.33, "unit": "µM"}, {"measurement": "IC50", "setting": "Ptch1 in C3Hs; Mus musculus, C3H 10T1/2", "result": 0.2, "unit": "µM"}, {"measurement": "inhibition of tube formation", "setting": "tube formation in HUVECs; 1 μM, 16 h", "result": "significant inhibition"}, {"measurement": "inhibition of tube formation (overall tube length and total tube junctions)", "setting": "tube formation in HUVECs; 10 μM, 16 h", "result": "comparable to that of the positive control suramin"}, {"measurement": "inhibition of tube formation", "setting": "tube formation in HUVECs; 0.1 and 1 μM, 24 hour", "result": "significantly inhibited tube formation"}, {"measurement": "IC50", "setting": "[1]; 48 h, read-out: IC50 (μM) ASZ, 48 hr incubation", "result": "0.14 ± 0.02", "unit": "µM"}, {"measurement": "IC50", "setting": "[1]; read-out: Hh pathway inhibition ASZ, down-regulation of endogenous Gli1 mRNA", "result": "0.14 ± 0.02", "unit": "µM"}, {"measurement": "IC50", "setting": "[1]; read-out: IC50 (μM) Gli1-ASZs", "result": "0.14 ± 0.02", "unit": "µM"}, {"measurement": "IC50", "setting": "[2]", "result": "0.6 ± 0.08", "unit": "µM"}, {"measurement": "IC50", "setting": "angiogenesis", "result": 160, "unit": "nM"}, {"measurement": "survival", "setting": "Hh-dependent MB", "result": "increased survival"}]}
